Assay results published in PubChem BioAssay AID2060883 (Molecular Pharmacology Branch, DTP, NCI, 2025).

System: 843782-103-R-J1-PDC complex spheroid viability
Assay: Anticancer human tumor 843782-103-R-J1-PDC patient-derived lung adenocarcinoma cell line growth inhibition [RAS]
Conditions: for IC50: curve of first compound; for viability, T/C: stronger effect = lower value
Method in brief: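 Tumour cells grown as complex spheroids with HUVEC endothelial cells and mesenchymal stem cells, treated with RAS pathway inhibitor combinations. Each agent spans half-log steps from near clinical Cmax, or 10 microM where Cmax is unknown.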

[1] = second compound 0.000949 µM, first compound 0.0316 µM
[2] = second compound 0.000949 µM, first compound 0.1 µM
[3] = second compound 0.000949 µM, first compound 0.316 µM
[4] = second compound 0.000949 µM, first compound 1 µM
[5] = second compound 0.000949 µM, first compound 3.16 µM
[6] = second compound 0.000949 µM, first compound 10 µM
[7] = second compound 0.003 µM, first compound 0.0316 µM
[8] = second compound 0.003 µM, first compound 0.1 µM
[9] = second compound 0.003 µM, first compound 0.316 µM
[10] = second compound 0.003 µM, first compound 1 µM
[11] = second compound 0.003 µM, first compound 3.16 µM
[12] = second compound 0.003 µM, first compound 10 µM
[13] = second compound 0.00949 µM, first compound 0.0316 µM
[14] = second compound 0.00949 µM, first compound 0.1 µM
[15] = second compound 0.00949 µM, first compound 0.316 µM
[16] = second compound 0.00949 µM, first compound 1 µM
[17] = second compound 0.00949 µM, first compound 3.16 µM
[18] = second compound 0.00949 µM, first compound 10 µM
[19] = second compound 0.03 µM, first compound 0.0316 µM
[20] = second compound 0.03 µM, first compound 0.1 µM
[21] = second compound 0.03 µM, first compound 0.316 µM
[22] = second compound 0.03 µM, first compound 1 µM
[23] = second compound 0.03 µM, first compound 3.16 µM
[24] = second compound 0.03 µM, first compound 10 µM
[25] = second compound 0.0949 µM, first compound 0.0316 µM
[26] = second compound 0.0949 µM, first compound 0.1 µM
[27] = second compound 0.0949 µM, first compound 0.316 µM
[28] = second compound 0.0949 µM, first compound 1 µM
[29] = second compound 0.0949 µM, first compound 3.16 µM
[30] = second compound 0.0949 µM, first compound 10 µM
[31] = second compound 0.3 µM, first compound 0.0316 µM
[32] = second compound 0.3 µM, first compound 0.1 µM
[33] = second compound 0.3 µM, first compound 0.316 µM
[34] = second compound 0.3 µM, first compound 1 µM
[35] = second compound 0.3 µM, first compound 3.16 µM
[36] = second compound 0.3 µM, first compound 10 µM
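Note: viability read after seven days of compound exposure.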

SMILES: CC(C)NCC(C(=O)N1CCN(c2ncnc3c2C(C)CC3O)CC1)c1ccc(Cl)cc1 (stereo unspecified) + CCn1c(-c2cc(N3CCN(C)CC3)cnc2C(C)OC)c2c3cc(ccc31)-c1csc(n1)CC(NC(=O)C1CC1C)C(=O)N1CCCC(N1)C(=O)OCC(C)(C)C2
- IC50 (second compound 0.000949 µM): 0.511 µM
- IC50 (second compound 0.003 µM): 0.242 µM
- IC50 (second compound 0.00949 µM): < 0.0316 µM
- IC50 (second compound 0.03 µM): < 0.0316 µM
- IC50 (second compound 0.0949 µM): < 0.0316 µM
- IC50 (second compound 0.3 µM): < 0.0316 µM
- viability, T/C [1]: 80.6%
- viability, T/C [2]: 73.9%
- viability, T/C [3]: 64.6%
- viability, T/C [4]: 30.4%
- viability, T/C [5]: 14.7%
- viability, T/C [6]: 6.49%
- viability, T/C [7]: 62.2%
- viability, T/C [8]: 63.7%
- viability, T/C [9]: 44.8%
- viability, T/C [10]: 25.8%
- viability, T/C [11]: 10.7%
- viability, T/C [12]: 5.07%
- viability, T/C [13]: 39.6%
- viability, T/C [14]: 38%
- viability, T/C [15]: 24.9%
- viability, T/C [16]: 15%
- viability, T/C [17]: 8.4%
- viability, T/C [18]: 4.07%
- viability, T/C [19]: 22.4%
- viability, T/C [20]: 25%
- viability, T/C [21]: 16.6%
- viability, T/C [22]: 9.92%
- viability, T/C [23]: 7.32%
- viability, T/C [24]: 2.47%
- viability, T/C [25]: 16.7%
- viability, T/C [26]: 18%
- viability, T/C [27]: 13.8%
- viability, T/C [28]: 8.39%
- viability, T/C [29]: 5.39%
- viability, T/C [30]: 2.13%
- viability, T/C [31]: 18%
- viability, T/C [32]: 14%
- viability, T/C [33]: 12.4%
- viability, T/C [34]: 7.41%
- viability, T/C [35]: 3.93%
- viability, T/C [36]: 1.56%

SMILES: CCN1CCN(Cc2ccc(Nc3ncc(F)c(-c4cc(F)c5nc(C)n(C(C)C)c5c4)n3)nc2)CC1 + CCn1c(-c2cccnc2C(C)OC)c2c3cc(ccc31)N1CCOC(CC(NC(=O)C(C(C)C)N(C)C(=O)C3(F)CCN(C(=O)C#CC(C)(C)N(C)C)CC3)C(=O)N3CCCC(N3)C(=O)OCC(C)(C)C2)C1
- IC50 (second compound 0.000949 µM): 0.197 µM
- IC50 (second compound 0.003 µM): 0.291 µM
- IC50 (second compound 0.00949 µM): 0.237 µM
- IC50 (second compound 0.03 µM): 0.406 µM
- IC50 (second compound 0.0949 µM): 0.329 µM
- IC50 (second compound 0.3 µM): 0.298 µM
- viability, T/C (second compound 0.000949 µM, first compound 0.00316 µM): 81%
- viability, T/C (second compound 0.000949 µM, first compound 0.01 µM): 73.8%
- viability, T/C [1]: 59%
- viability, T/C [2]: 58.3%
- viability, T/C [3]: 46.5%
- viability, T/C [4]: 38.1%
- viability, T/C (second compound 0.003 µM, first compound 0.00316 µM): 78.8%
- viability, T/C (second compound 0.003 µM, first compound 0.01 µM): 69.4%
- viability, T/C [7]: 62.8%
- viability, T/C [8]: 67.1%
- viability, T/C [9]: 45.4%
- viability, T/C [10]: 37.8%
- viability, T/C (second compound 0.00949 µM, first compound 0.00316 µM): 71.4%
- viability, T/C (second compound 0.00949 µM, first compound 0.01 µM): 72.5%
- viability, T/C [13]: 67.6%
- viability, T/C [14]: 61.2%
- viability, T/C [15]: 46.2%
- viability, T/C [16]: 34.1%
- viability, T/C (second compound 0.03 µM, first compound 0.00316 µM): 71.3%
- viability, T/C (second compound 0.03 µM, first compound 0.01 µM): 72%
- viability, T/C [19]: 71%
- viability, T/C [20]: 58.8%
- viability, T/C [21]: 56.4%
- viability, T/C [22]: 35.6%
- viability, T/C (second compound 0.0949 µM, first compound 0.00316 µM): 84.2%
- viability, T/C (second compound 0.0949 µM, first compound 0.01 µM): 75.7%
- viability, T/C [25]: 68.7%
- viability, T/C [26]: 60.3%
- viability, T/C [27]: 46.7%
- viability, T/C [28]: 45%
- viability, T/C (second compound 0.3 µM, first compound 0.00316 µM): 72%
- viability, T/C (second compound 0.3 µM, first compound 0.01 µM): 66.1%
- viability, T/C [31]: 56.5%
- viability, T/C [32]: 66.8%
- viability, T/C [33]: 46%
- viability, T/C [34]: 38.8%

SMILES: CC(Nc1ccc2c(c1)OCCn1cc(N3C(=O)OCC3C(F)F)nc1-2)C(N)=O (stereo unspecified) + CCn1c(-c2cccnc2C(C)OC)c2c3cc(ccc31)N1CCOC(CC(NC(=O)C(C(C)C)N(C)C(=O)C3(F)CCN(C(=O)C#CC(C)(C)N(C)C)CC3)C(=O)N3CCCC(N3)C(=O)OCC(C)(C)C2)C1
- IC50 (second compound 0.000949 µM): 0.0352 µM
- IC50 (second compound 0.003 µM): < 0.0316 µM
- IC50 (second compound 0.00949 µM): 0.0384 µM
- IC50 (second compound 0.03 µM): 0.0348 µM
- IC50 (second compound 0.0949 µM): 0.0421 µM
- IC50 (second compound 0.3 µM): < 0.0316 µM
- viability, T/C [1]: 52.9%
- viability, T/C [2]: 31.6%
- viability, T/C [3]: 31.5%
- viability, T/C [4]: 16.4%
- viability, T/C [5]: 14.3%
- viability, T/C [6]: 7.59%
- viability, T/C [7]: 44.2%
- viability, T/C [8]: 36.5%
- viability, T/C [9]: 25.6%
- viability, T/C [10]: 25.1%
- viability, T/C [11]: 14.9%
- viability, T/C [12]: 9.07%
- viability, T/C [13]: 53%
- viability, T/C [14]: 37.7%
- viability, T/C [15]: 23.8%
- viability, T/C [16]: 19.6%
- viability, T/C [17]: 14.1%
- viability, T/C [18]: 8.01%
- viability, T/C [19]: 52%
- viability, T/C [20]: 34.8%
- viability, T/C [21]: 24.9%
- viability, T/C [22]: 18.9%
- viability, T/C [23]: 13.8%
- viability, T/C [24]: 7.4%
- viability, T/C [25]: 56%
- viability, T/C [26]: 32.5%
- viability, T/C [27]: 24.1%
- viability, T/C [28]: 21.1%
- viability, T/C [29]: 13.9%
- viability, T/C [30]: 7.55%
- viability, T/C [31]: 50.3%
- viability, T/C [32]: 35.7%
- viability, T/C [33]: 25.6%
- viability, T/C [34]: 19.4%
- viability, T/C [35]: 10.7%
- viability, T/C [36]: 6.72%
